Laboratory results as given in US20210259954A1, “CILIA-TARGETING NANOPARTICLES” (Chapman University, priority 2019, published 2021).

How the values were obtained:
Pkd2 zebrafish = test: Pkd2 morphant zebrafish ciliopathy model (Example 1); format: in vivo
Method: Animal Studies. All animal procedures were performed according to the University of California Irvine or Chapman University Animal Care and Use Committee Guidelines. To eliminate biases and subjective analyses, all animal studies were performed by double-blinded operators. Wild-type zebrafish AB strains were obtained from the Zebrafish International Resource Center. Embryos were injected with 1 mM morpholino oligos (GeneTools) at the 1-2 cell stage and cultured at 28.5° C. in sterile egg water. The following morpholino sequences were used: control scrambled MO: 5′-CCTCTTACCTCAGTTACAATTTATA-3′ (SEQ ID NO:1), Pkd2: 5′-AGGACGAACGCGACTGGGCTCATC-3′ (SEQ ID NO:2). The cardiac function was assessed by placing zebrafish on their dorsal axis to examine the relative locations of the ventricle and bulbus arteriosus, blood circulation and the heartbeat. Measurements of blood flow characteristics and heart parameters were performed using a Nikon Eclipse Ti microscope. NIS-Elements High Content AR 4.30.02 (Nikon) was used for the live tracking of the speed and acceleration of a single blood cell.

primary cilia = test: In vitro cilia length, immunocytochemistry (Example 2); format: cell-based, porcine; settings: 16 h of treatment
Method: Immunocytochemistry and confocal microscopy. For the in vitro cilia length measurements, cells were grown on the Formvar® polymer, as mentioned above. […] Fenoldopam-alone was also used as another control. […] An antibody against acetylated-α-tubulin (1:10,000 dilution, Sigma-Aldrich) and the secondary antibodies were also diluted in 10% FBS to decrease the background florescence; a FITC-conjugated secondary antibody (1:1000; Pierce) was used. Cells were then washed three times for 5 minutes each with cacodylate buffer and sealed with mounting media containing DAPI (Vector Laboratories). […] Images were processed using NIS-Elements High Content AR 4.30.02 (Nikon). Automated image acquisition (ND acquisition) was conducted under the same ×60 magnification (selected area capturing option) field and Z-stack (0.1 μm slices) settings to create a 3D video. All imaging and video acquisition times and the microscope stage were automatically controlled (XY, XZ and YZ) by an automated perfect focusing system (PFS). The in vivo cilia length measurements and NP localizations in the zebrafish and mouse tissues were performed using the same method.

[1] = test system: Tie2Cre⋅Pkd2^flox/flox mice; test: Working heart perfusion system, hearts of treated Pkd2 mice (Example 2); format: in vivo, mouse
Method: All mouse experiments were performed by two operators who were blinded to the experimental conditions. […] One-week-old Tie2Cre⋅Pkd2^WT/WT (with Cre activation; control group), Tie2Cre⋅Pkd2^flox/flox (without Cre activation; control group) or Tie2Cre⋅Pkd2^flox/flox (with Cre activation; experimental group) mice were intraperitoneally injected with 250 μg of tamoxifen in a 50-μL volume daily for five consecutive days.
The ex vivo measurements of heart parameters were recorded using a mouse working heart system from Emka Technologies to study heart function independently of neuronal innervation or humoural effects. This system collected data regarding the cardiac contractile strength, electrical heart propagation or ECG and other cardiac functions, including the HR, LVP, LVV, left atrial pressure (LAP), aortic out flow (AOF), stroke volume (SV), cardiac output (CO), end diastolic/systolic volume (Edv-Esv), rate of left atrial pressure raise (+dp/dt) and fall (−dt/dt), and the preload, afterload, and main aortic pressure. Heparin (100 units, IP), xylazine (10-15 mg/kg, IP), and ketamine (200-350 mg/kg, IP) were used to prevent blood coagulation in the coronary arteries and to anaesthetize the mice. After cannulation, the heart was perfused with Krebs-Ringer superfusion solution (in mM: 125 NaCl, 2.5 KCl, 1.25 NaH2PO4, 2 CaCl2, 1 MgCl2, 25 NaHCO3 and 25 glucose). Throughout the experiment, the solution was continuously bubbled with carbogen (95% O2 and 5% CO2) to reach pH 7.4 at 38.0° C. Stress tests were performed on the heart by perfusing epinephrine (4 μg/L) or diltiazem (0.08 μg/L). Cardiac function was plotted in a loop diagram showing the LVV-LVP relationship (volume-pressure loop).

[2] = test system: Tie2Cre⋅Pkd2^flox/flox mice; test: Working heart perfusion system, hearts of treated Pkd2 mice (Example 1); format: in vivo, mouse; settings: for CO, cardiac output / EDPVR, end-diastolic pressure volume relation / EF, ejection fraction / ESPVR, end-systolic pressure volume relation / HR, heart rate / LV EDP, end-diastolic pressure / LV EDV, end-diastolic volume / LV ESP, end-systolic pressure / LV ESV, end-systolic volume / LV Pmax, systolic pressure / SV, stroke volume / SW, stroke work / dP/dtmax, maximum rate of LV pressure rise / dP/dtmin, maximum rate of LV pressure fall: Pkd2 heart
Method: One-week-old Tie2Cre⋅Pkd2^WT/WT (with cre activation; control group) or Tie2Cre⋅Pkd2^flox/flox (without cre activation; control group), and Tie2Cre⋅Pkd2^flox/flox (with cre activation; experimental group) mice were injected intra-peritoneally with 5 μg/μL tamoxifen every day for five consecutive days. […] The mice were next injected with PBS (control), CT-DAu-NPs or CT-PLGA-NPs (0.5 to 2.0 mg/kg body weight) via intravenous (IV) injections. […] The mice were treated every 72 hours with different NPs for 8 weeks.
Working Heart Perfusion System. To study heart function independently from neuronal innervation or humoral effect, ex vivo heart parameters were collected using a mouse working heart system from Emka Technologies. This system collected data of the cardiac contractile strength, electrical heart propagation (ECG; electrocardiogram) and other cardiac functions, including the heart rate (HR), left ventricle pressure (LVP), left ventricular volume (LVV), left atrial pressure (LAP), aortic out flow (AOF), stroke volume (SV), cardiac output (CO), end diastolic/systolic volume (Edv-Esv), rate of left atrial pressure raise (+dp/dt) and fall (−dt/dt), preload, afterload, and main aortic pressure. Heparin (100 units, IP), xylazine (10-15 mg/kg, IP), and ketamine (200-350 mg/kg, IP) were used to prevent blood coagulation in the coronary arteries and to anesthetize the mice. After cannulation, the heart was perfused with Krebs-Ringer superfusion solution (in mM: 125 NaCl, 2.5 KCl, 1.25 NaH2PO4, 2 CaCl2, 1 MgCl2, 25 NHCO3 and 25 glucose). Throughout the experiment, the solution was continuously bubbled with carbogen (95% O2 and 5% CO2) to reach 7.4 pH at 38° C. Stress tests were performed in the heart by perfusing epinephrine (4 μg/L) or diltiazem (0.08 μg/L). The cardiac function was plotted in a loop diagram showing the LVV-LVP relationship (volume-pressure loop).

[3] = Pharmacokinetics of fenoldopam in mice (Example 1); format: in vivo, mouse; settings: 30-minute infusion vs bolus of fenoldopam-loaded CTNDDS
Method: The pharmacokinetics of different NPs treated mice were studied. […] All drugs were extracted from plasma samples and HPLC analysis performed. In the biodistribution studies, whole organs from the fluorescent-labelled NPs treated mice (heart, kidney, liver, spleen and lung) were collected, homogenized and measured for fluorescence intensity to assess the amount of NP distribution in different organs at 24- and 72-hours after treatments. For the in vivo toxicity studies, 200 μL of blood samples were collected from different treatments (PBS, CT-DAu-NPs or CT-PLGA-NPs). Biochemistry was performed using biochemical analyzer (VetScan VS2).

For `Oc1ccc(C2CNCCc3c2cc(O)c(O)c3Cl)cc1` (stereo not shown) [Fenoldopam, fenoldopam], the “tolerability of bolus injection” value (Pkd2 zebrafish) was “tachycardia-associated death”, the cilia length (primary cilia) was “increased the cilia length” and the “CO, cardiac output” value ([1]; diltiazem stress) was 1783 ± 32 µL/min. The “EDPVR, end-diastolic pressure volume relation” value ([1]; diltiazem stress) was 0.14 ± 0.01 mmHg/μL, the “EF, ejection fraction” value ([1]; diltiazem stress) was 49.5 ± 0.3% and the “ESPVR, end-systolic pressure volume relation” value ([1]; diltiazem stress) was 2.21 ± 0.03 mmHg/μL. For the same compound, the “HR, heart rate” value ([1]; diltiazem stress) was 94 ± 11 beat/min, the “LV EDP, end-diastolic pressure” value ([1]; diltiazem stress) was 5.7 ± 0.2 mmHg and the “LV EDV, end-diastolic volume” value ([1]; diltiazem stress) was 40.0 ± 0.4 µL. For the same compound, the “LV ESP, end-systolic pressure” value ([1]; diltiazem stress) was 35.5 ± 0.5 mmHg, the “LV ESV, end-systolic volume” value ([1]; diltiazem stress) was 20.2 ± 0.1 µL and the “LV Pmax, systolic pressure” value ([1]; diltiazem stress) was 44.7 ± 0.7 mmHg. For the same compound, the “SV, stroke volume” value ([1]; diltiazem stress) was 19.8 ± 0.3 µL, the “SW, stroke work” value ([1]; diltiazem stress) was 772 ± 10 mmHg · μL and the “dP/dtmax, maximum rate of LV pressure rise” value (“dP/dtmax, maximum rate” below) ([1]; diltiazem stress) was 4020 ± 642 mmHg/s. For the same compound, the “dP/dtmin, maximum rate of LV pressure fall” value (shortened to “dP/dtmin, maximum rate”) ([1]; diltiazem stress) was −1537 ± 97 mmHg/s, the “EDPVR, end-diastolic pressure volume relation” value ([1]; epinephrine stress) was 0.16 ± 0.01 mmHg/μL and the “EF, ejection fraction” value ([1]; epinephrine stress) was 77.7 ± 2.0%. The “ESPVR, end-systolic pressure volume relation” value ([1]; epinephrine stress) was 9.8 ± 0.88 mmHg/μL, the “HR, heart rate” value ([1]; epinephrine stress) was 216 ± 47 beat/min and the “LV EDP, end-diastolic pressure” value ([1]; epinephrine stress) was 6.4 ± 0.5 mmHg. For the same compound, the “LV EDV, end-diastolic volume” value ([1]; epinephrine stress) was 39.9 ± 0.1 µL, the “LV ESP, end-systolic pressure” value ([1]; epinephrine stress) was 64.2 ± 0.9 mmHg and the “LV ESV, end-systolic volume” value ([1]; epinephrine stress) was 8.9 ± 0.8 µL. For the same compound, the “LV Pmax, systolic pressure” value ([1]; epinephrine stress) was 85.6 ± 1.2 mmHg, the “SV, stroke volume” value ([1]; epinephrine stress) was 31.0 ± 0.8 µL and the “SW, stroke work” value ([1]; epinephrine stress) was 2569 ± 53 mmHg · μL. The “dP/dtmax, maximum rate” value ([1]; epinephrine stress) was 17130 ± 239 mmHg/s, the “dP/dtmin, maximum rate” value ([1]; epinephrine stress) was −3844 ± 278 mmHg/s and the “CO, cardiac output” value ([1]; vehicle) was 3402 ± 92 µL/min. For the same compound, the “EDPVR, end-diastolic pressure volume relation” value ([1]; vehicle) was 0.13 ± 0.01 mmHg/μL, the “EF, ejection fraction” value ([1]; vehicle) was 62.5 ± 0.2% and the “ESPVR, end-systolic pressure volume relation” value ([1]; vehicle) was 4.6 ± 0.04 mmHg/μL. The “HR, heart rate” value ([1]; vehicle) was 136 ± 26 beat/min, the “LV EDP, end-diastolic pressure” value ([1]; vehicle) was 5.0 ± 0.1 mmHg and the “LV EDV, end-diastolic volume” value ([1]; vehicle) was 40.0 ± 0.1 µL. For the same compound, the “LV ESP, end-systolic pressure” value ([1]; vehicle) was 52.2 ± 0.5 mmHg, the “LV ESV, end-systolic volume” value ([1]; vehicle) was 15.0 ± 0.1 µL and the “LV Pmax, systolic pressure” value ([1]; vehicle) was 69.7 ± 0.7 mmHg. For the same compound, the “SV, stroke volume” value ([1]; vehicle) was 25.0 ± 0.1 µL, the “SW, stroke work” value ([1]; vehicle) was 1616 ± 70 mmHg · μL and the “dP/dtmax, maximum rate” value ([1]; vehicle) was 7524 ± 71 mmHg/s. The “dP/dtmin, maximum rate” value ([1]; vehicle) was −1625 ± 27 mmHg/s, the “CO, cardiac output” value ([2]; diltiazem stress) was 1873 ± 70 µL/min and the “EDPVR, end-diastolic pressure volume relation” value ([2]; diltiazem stress) was 0.14 ± 0.01 mmHg/μL. For the same compound, the “EF, ejection fraction” value ([2]; diltiazem stress) was 51.6 ± 1.4%, the “ESPVR, end-systolic pressure volume relation” value ([2]; diltiazem stress) was 2.3 ± 0.1 mmHg/μL and the “HR, heart rate” value ([2]; diltiazem stress) was 98 ± 9 beat/min. The “LV EDP, end-diastolic pressure” value ([2]; diltiazem stress) was 5.7 ± 0.2 mmHg, the “LV EDV, end-diastolic volume” value ([2]; diltiazem stress) was 40.3 ± 0.8 µL and the “LV ESP, end-systolic pressure” value ([2]; diltiazem stress) was 33.5 ± 0.5 mmHg. The “LV ESV, end-systolic volume” value ([2]; diltiazem stress) was 19.5 ± 0.6 µL, the “LV Pmax, systolic pressure” value ([2]; diltiazem stress) was 44.7 ± 0.7 mmHg and the “SV, stroke volume” value ([2]; diltiazem stress) was 20.8 ± 0.8 µL. The “SW, stroke work” value ([2]; diltiazem stress) was 812 ± 29 mmHg · μL, the “dP/dtmax, maximum rate” value ([2]; diltiazem stress) was 4020 ± 643 mmHg/s and the “dP/dtmin, maximum rate” value ([2]; diltiazem stress) was −1537 ± 97 mmHg/s. For the same compound, the “CO, cardiac output” value ([2]; epinephrine stress) was 6810 ± 347 µL/min, the “EDPVR, end-diastolic pressure volume relation” value ([2]; epinephrine stress) was 0.16 ± 0.01 mmHg/μL and the “EF, ejection fraction” value ([2]; epinephrine stress) was 77.7 ± 2.0%. The “ESPVR, end-systolic pressure volume relation” value ([2]; epinephrine stress) was 9.7 ± 0.9 mmHg/μL, the “HR, heart rate” value ([2]; epinephrine stress) was 219 ± 44 beat/min and the “LV EDP, end-diastolic pressure” value ([2]; epinephrine stress) was 6.4 ± 0.5 mmHg. For the same compound, the “LV EDV, end-diastolic volume” value ([2]; epinephrine stress) was 39.9 ± 0.1 µL, the “LV ESP, end-systolic pressure” value ([2]; epinephrine stress) was 63.2 ± 0.3 mmHg and the “LV ESV, end-systolic volume” value ([2]; epinephrine stress) was 8.9 ± 0.8 µL. For the same compound, the “LV Pmax, systolic pressure” value ([2]; epinephrine stress) was 84.3 ± 0.4 mmHg, the “SV, stroke volume” value ([2]; epinephrine stress) was 31.1 ± 0.7 µL and the “SW, stroke work” value ([2]; epinephrine stress) was 2417 ± 28 mmHg · μL. The “dP/dtmax, maximum rate” value ([2]; epinephrine stress) was 16864 ± 85 mmHg/s, the “dP/dtmin, maximum rate” value ([2]; epinephrine stress) was −3843 ± 277 mmHg/s and the “CO, cardiac output” value ([2]; vehicle) was 3486 ± 81 µL/min. For the same compound, the “EDPVR, end-diastolic pressure volume relation” value ([2]; vehicle) was 0.13 ± 0.01 mmHg/μL, the “EF, ejection fraction” value ([2]; vehicle) was 62.5 ± 0.2% and the “ESPVR, end-systolic pressure volume relation” value ([2]; vehicle) was 4.4 ± 0.1 mmHg/μL. For the same compound, the “HR, heart rate” value ([2]; vehicle) was 140 ± 24 beat/min, the “LV EDP, end-diastolic pressure” value ([2]; vehicle) was 5.0 ± 0.1 mmHg and the “LV EDV, end-diastolic volume” value ([2]; vehicle) was 40.0 ± 0.1 µL. For the same compound, the “LV ESP, end-systolic pressure” value ([2]; vehicle) was 49.7 ± 1.5 mmHg, the “LV ESV, end-systolic volume” value ([2]; vehicle) was 15.0 ± 0.1 µL and the “LV Pmax, systolic pressure” value ([2]; vehicle) was 66.3 ± 2.0 mmHg. For the same compound, the “SV, stroke volume” value ([2]; vehicle) was 24.9 ± 0.1 µL, the “SW, stroke work” value ([2]; vehicle) was 1530 ± 20 mmHg · μL and the “dP/dtmax, maximum rate” value ([2]; vehicle) was 7157 ± 211 mmHg/s. For the same compound, the “dP/dtmin, maximum rate” value ([2]; vehicle) was −1624 ± 24 mmHg/s, the “LVP/LVV abnormalities (P-V loops)” value ([2]; Pkd2 hearts) was “Both CTNDDS but not fenoldopam-alone corrected these abnormalities” and the “arrhythmia (ECG)” value ([2]; Pkd2 hearts, 8-week treatment) was “could be corrected with 8-week treatment of CTNDDS but not fenoldopam-alone”. For the same compound, the “total plasma concentration of fenoldopam (area under the curve, one hour)” value [3] was “significantly higher”.
